Measured values published in patent US10239849B2 (Merck Sharp & Dohme Corp., priority 2015, dated 2019).

What was measured:
[1] = target: T1, glutathione-S-transferase (GST) tagged LXRbeta LBD (ligand binding domain) (Homo sapiens, UniProt P55055); assay: LanthaScreen TR-FRET Liver X Receptor Coactivator Assay, LXR beta-LBD; type: biochemical; details: for Emax: efficacy in relation to reference dual agonist T1317, read-out: LXR beta activity at max dose (%) (Emax); for EC50: potency (Inflection Point) of co-activator recruitment, TR-FRET, read-out: LXR beta IP
T1 construct: purchased Invitrogen pv4658.pps
T1 sequence (P55055 222-460 limits assumed): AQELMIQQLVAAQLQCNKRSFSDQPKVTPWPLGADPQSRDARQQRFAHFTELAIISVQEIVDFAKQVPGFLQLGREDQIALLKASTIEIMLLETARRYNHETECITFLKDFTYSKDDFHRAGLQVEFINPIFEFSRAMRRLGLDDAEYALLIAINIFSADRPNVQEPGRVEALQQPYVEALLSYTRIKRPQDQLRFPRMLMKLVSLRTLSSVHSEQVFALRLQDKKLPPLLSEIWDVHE
How it was run: (§1)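 Coactivator recruitment format: receptor LBD exposed to compounds, detection via Tb-antibody/fluorescein-peptide pair, room-temperature incubation, TR-FRET signal on a filter instrument.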

[2] = target: T2, glutathione-S-transferase (GST) tagged LXRalpha LBD (ligand binding domain) (Homo sapiens, UniProt Q13133); assay: LanthaScreen TR-FRET Liver X Receptor Coactivator Assay, LXR alpha-LBD; type: biochemical; details: for Emax: efficacy in relation to reference dual agonist T1317, read-out: LXR alpha activity at max dose (%) (Emax); for EC50: potency (Inflection Point) of co-activator recruitment, TR-FRET, read-out: LXR alpha IP
T2 construct: purchased Invitrogen pv4655
T2 sequence (Q13133 209-447 limits assumed): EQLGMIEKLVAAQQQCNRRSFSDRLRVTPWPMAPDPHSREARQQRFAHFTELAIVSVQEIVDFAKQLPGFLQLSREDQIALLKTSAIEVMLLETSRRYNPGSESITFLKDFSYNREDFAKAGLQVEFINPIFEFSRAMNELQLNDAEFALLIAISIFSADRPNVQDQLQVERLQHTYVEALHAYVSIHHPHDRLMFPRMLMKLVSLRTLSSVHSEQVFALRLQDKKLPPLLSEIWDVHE
How it was run: as §1

Row | Compound | Emax [1] [%] | EC50 [1] [nM] | Emax [2] [%] | EC50 [2] [nM]
1 | CN(C)C(=O)c1ccc(-c2cnc(N3CCN(C(=O)OC(C)(C)C)CC3)c(Cl)c2)cc1Cl [Example 9-1, tert-butyl 4-(3-chloro-5-(3-chloro-4-(dimethylcarbamoyl)phenyl)pyridin-2-yl)piperazine-1-carboxylate] | 61 | 55 | 48 | 1350
2 | C=Cc1cc(-c2ccc(C(=O)N(C)C)c(Cl)c2)cnc1N1CCN(C(=O)OC(C)(C)C)CC1 [Example 9-2, tert-butyl 4-{5-[3-chloro-4-(dimethylcarbamoyl)phenyl]-3-ethenylpyridin-2-yl}piperazine-1-carboxylate] | 49 | 161 | 38 | 3440
3 | CN(C)C(=O)c1ccc(-c2cnc(N3CCN(C(=O)OC(C)(C)C)CC3)c(CO)c2)cc1Cl [Example 9-3, tert-butyl 4-{5-[3-chloro-4-(dimethylcarbamoyl)phenyl]-3-(hydroxymethyl)pyridin-2-yl}piperazine-1-carboxylate] | 57 | 730 | 34 | 30100
4 | CN(C)C(=O)c1ccc(-c2cnc(N3CCN(C(=O)OC(C)(C)C)CC3)c(C#N)c2)cc1C1CC1 [Example 9-4, tert-butyl 4-{3-cyano-5-[3-cyclopropyl-4-(dimethylcarbamoyl)phenyl]pyridin-2-yl}piperazine-1-carboxylate] | 68 | 676 | 39 | 4630
5 | C#Cc1cc(-c2ccc(C(=O)N(C)C)c(Cl)c2)cnc1N1CCN(C(=O)OC(C)(C)C)CC1 [Example 9-5] | 59 | 62 | 49 | 2360
